Results taken from patent EP0049683A2, “Imidazo-rifamycines, process for their preparation, pharmaceutical preparations containing them and their use” (CIBA-GEIGY AG, priority 1980, dated 1982).
Converted amounts (≈) assume the structure as drawn.

Assays:
Format in all cases: cell-based
[1] = tested on: Staphylococcus aureus; experiment: In vitro antibacterial activity against gram-positive cocci; details: at (at or below) the lowest limit of the tested concentration range, 0,005 y/ml
Description: (§1) Die neuen erfindungsgemässen Verbindungen der Formel I zeichnen sich vor allem durch ihre wertvollen pharmakologischen Eigenschaften aus: so besitzen sie gemäss den Resultaten in vitro antibiotische, insbesondere antibakterielle Eigenschaften, wie z.B. einerseits gegen grammpositive Kokken, wie Staphylococcus aureus, (im getesteten Konzentrationsbereich 0,005 bis 128 y/ml),andererseits gegen grammnegative Stäbchenbakterien, wie Enterobacteriaceae, z.B. Escherichia coli, Pseudomonas aeruginosa und Proteus morganii (im getesteten Konzentrationsbereich von 1 bis 64 y/ml), sowie gegen Mycobacterium tuberculosis (im getesteten Konzentrationsbereich von 0,48 bis 1,9 y/ml). […] (Für die Testresultate siehe auch Tabelle -1.)
(§2) Auch die neuen erfindungsgemässen Verbindungen der Formeln V und VI zeichnen sich durch analoge wertvolle pharmakologische Eigenschaften aus, d.h. sie besitzen gemäss den Resultaten in vitro antibiotische, insbesondere antibakterielle Eigenschaften, die sich bezüglich des Anwendungsbereichs sowie der getesteten effektiven Konzentrationen den Verbindungen der Formel I praktisch gleichen. […] (Für die Testresultate siehe auch Tabelle 2.)

[2] = tested on: Enterobacteriaceae, z.B. Escherichia coli, Pseudomonas aeruginosa und Proteus morganii; experiment: In vitro antibacterial activity against gram-negative rods; details: within the stated concentration range, 1 bis 64 y/ml
Description: as §1, §2

[3] = tested on: Escherichia coli 2018; experiment: Agar dilution MIC in DST agar (Ericsson and Sherris); details: for MIC Esch. 2018: in vitro; for MIC: Escherichia coli, 2018, in vitro, read-out: MIC Esch. 2018
Procedure, shortened: (§3)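 Compounds are incorporated into agar at graded levels and the test strain is applied; the lowest concentration still suppressing its growth is recorded as the MIC in µg/ml.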

[4] = tested on: Escherichia coli 205; experiment: as above; details: for MIC Esch. 205: in vitro; for MIC: Escherichia coli, 205, in vitro, read-out: MIC Esch. 205
Procedure, shortened: as §3

[5] = tested on: Proteus morganii 1518; experiment: as above; details: for MIC Prot. 1518: in vitro; for MIC: Morganella morganii, 1518, in vitro, read-out: MIC Prot. 1518
Procedure, shortened: as §3

[6] = tested on: Proteus morganii 2359; experiment: as above; details: for MIC Prot. 2359: in vitro; for MIC: Morganella morganii, 2359, in vitro, read-out: MIC Prot. 2359
Procedure, shortened: as §3

[7] = tested on: Pseudomonas aeruginosa K 799/61; experiment: as above; details: for MIC Pseu. 799: in vitro, agar dilution, DST agar; for MIC: Pseudomonas aeruginosa, K799/61, read-out: MIC Pseu. 799
Procedure, shortened: as §3

[8] = tested on: Salmonella Typhimurium 277; experiment: as above; details: in vitro; for MIC: Salmonella enterica, TYPHIMURIUM, read-out: MIC Salm. 277
Procedure, shortened: as §3

[9] = tested on: Staphylococcus aureus 10B; experiment: as above; details: in vitro; for MIC: Staphylococcus aureus, 10B, read-out: MIC Staph. 10B
Procedure, shortened: as §3

[10] = tested on: Staphylococcus aureus 2999; experiment: as above; details: for MIC Staph. 2999: in vitro; for MIC: Staphylococcus aureus, 2999, in vitro, read-out: MIC Staph. 2999
Procedure, shortened: as §3

[11] = tested on: Mycobacterium tuberculosis; experiment: as above; details: in vitro; for MIC: Mycobacterium tuberculosis, read-out: MIC Myc. tub.

Row | Compound | Hemmwirkung auf Staphylococcus aureus [1] | Hemmung der Enterobacterien [2] | MIC Esch. 2018 [3] | MIC Esch. 205 [4] | MIC Prot. 1518 [5] | MIC Prot. 2359 [6] | MIC Pseu. 799 [7] | MIC Salm. 277 [8] | MIC Staph. 10B [9] | MIC Staph. 2999 [10] | MIC Myc. tub. [11] | MIC [3] | MIC [4] | MIC [5] | MIC [6] | MIC [7] | MIC [8] | MIC [9] | MIC [10] | MIC [11]
1 | 3-(4-Methylpiperazinyl)-methylenamino-Rifamycin S [Verbindung 88] | deutliche Hemmwirkung | wirksam hemmen | – | – | – | – | – | – | – | – | – | – | – | – | – | – | – | – | – | –
2 | 3-(4-Phenylpiperazinyl)methylenamino-Rifamycin S [Verbindung 91] | deutliche Hemmwirkung | wirksam hemmen | – | – | – | – | – | – | – | – | – | – | – | – | – | – | – | – | – | –
3 | 3-Indolinylmethylenamino-Rifamycin S [Verbindung 82] | deutliche Hemmwirkung | wirksam hemmen | – | – | – | – | – | – | – | – | – | – | – | – | – | – | – | – | – | –
4 | 3-Thiomorpholinylmethylenamino-Rifamycin S [Verbindung 87] | deutliche Hemmwirkung | wirksam hemmen | – | – | – | – | – | – | – | – | – | – | – | – | – | – | – | – | – | –
5 | 4-(1-Perhydroazocinyl)-imidazolo[4,5-c]rifamycin SV [Verbindung 28] | – | – | 4 µg/mL | 4 µg/mL | 2 µg/mL | 2 µg/mL | 8 µg/mL | 16 µg/mL | 0.005 µg/mL | 0.005 µg/mL | 0.97 µg/mL | – | – | – | – | – | – | – | – | –
6 | 4-Pyrrolidinyl-imidazolo[4,5-c]rifamycin SV [Verbindung 19] | deutliche Hemmwirkung | wirksam hemmen | 4 µg/mL | 2 µg/mL | 4 µg/mL | 4 µg/mL | 8 µg/mL | 8 µg/mL | 0.005 µg/mL | 0.005 µg/mL | 0.48 µg/mL | – | – | – | – | – | – | – | – | –
7 | 4-[8-Aza-1,4-dioxaspiro-(4,5)-8-decyl]-imidazolo[4,5-c]-rifamycin SV [Verbindung 25] | – | – | 16 µg/mL | 8 µg/mL | 8 µg/mL | 8 µg/mL | 16 µg/mL | 16 µg/mL | 0.005 µg/mL | 0.005 µg/mL | 0.97 µg/mL | – | – | – | – | – | – | – | – | –
8 | COC1C=COC2(C)Oc3c(C)c(O)c4c(O)c(c5nc(N(C)C)[nH]c5c4c3C2=O)NC(=O)C(C)=CC=CC(C)C(O)C(C)C(O)C(C)C(OC(C)=O)C1C (centres unmarked) [Verbindung 1, 4-Dimethylamino-imidazolo[4,5-c]rifamycin SV] | deutliche Hemmwirkung | wirksam hemmen | – | – | – | – | – | – | – | – | – | 4 µg/mL (≈ 5.23 µM) | 8 µg/mL (≈ 10.5 µM) | 4 µg/mL (≈ 5.23 µM) | 8 µg/mL (≈ 10.5 µM) | 2 µg/mL (≈ 2.61 µM) | 16 µg/mL (≈ 20.9 µM) | 0.005 µg/mL (≈ 0.00654 µM) | 0.005 µg/mL (≈ 0.00654 µM) | 0.97 µg/mL (≈ 1.27 µM)
9 | COC1C=COC2(C)Oc3c(C)c(O)c4c(O)c(c5nc(N6CCOCC6)[nH]c5c4c3C2=O)NC(=O)C(C)=CC=CC(C)C(O)C(C)C(O)C(C)C(OC(C)=O)C1C (centres unmarked) [Verbindung 2, 4-Morpholino-imidazolo[4,5-c]rifamycin SV] | deutliche Hemmwirkung | wirksam hemmen | – | – | – | – | – | – | – | – | – | 16 µg/mL (≈ 19.8 µM) | 16 µg/mL (≈ 19.8 µM) | 4 µg/mL (≈ 4.96 µM) | 4 µg/mL (≈ 4.96 µM) | 8 µg/mL (≈ 9.91 µM) | 32 µg/mL (≈ 39.7 µM) | 0.01 µg/mL (≈ 0.0124 µM) | 0.005 µg/mL (≈ 0.0062 µM) | 1.9 µg/mL (≈ 2.35 µM)
10 | COC1C=COC2(C)Oc3c(C)c(O)c4c(O)c(c5nc(N6CCN(C)CC6)[nH]c5c4c3C2=O)NC(=O)C(C)=CC=CC(C)C(O)C(C)C(O)C(C)C(OC(C)=O)C1C (centres unmarked) [Verbindung 3, 4-(4-Methylpiperazinyl)-imidazolo[4,5-c]rifamycin SV] | deutliche Hemmwirkung | wirksam hemmen | – | – | – | – | – | – | – | – | – | 16 µg/mL (≈ 19.5 µM) | 16 µg/mL (≈ 19.5 µM) | 16 µg/mL (≈ 19.5 µM) | 16 µg/mL (≈ 19.5 µM) | 4 µg/mL (≈ 4.88 µM) | 32 µg/mL (≈ 39 µM) | 0.01 µg/mL (≈ 0.0122 µM) | 0.01 µg/mL (≈ 0.0122 µM) | 0.97 µg/mL (≈ 1.18 µM)
11 | COC1C=COC2(C)Oc3c(C)c(O)c4c(O)c(c5nc(N6CCN(CC7CCCCC7)CC6)[nH]c5c4c3C2=O)NC(=O)C(C)=CC=CC(C)C(O)C(C)C(O)C(C)C(OC(C)=O)C1C (centres unmarked) [Verbindung 5, 4-(4-Cyclohexylmethyl-piperazinyl)-imidazolo[4,5-c]rifamycin SV] | – | – | – | – | – | – | – | – | – | – | – | 4 µg/mL (≈ 4.43 µM) | 4 µg/mL (≈ 4.43 µM) | 8 µg/mL (≈ 8.87 µM) | 16 µg/mL (≈ 17.7 µM) | 16 µg/mL (≈ 17.7 µM) | 8 µg/mL (≈ 8.87 µM) | 0.005 µg/mL (≈ 0.00554 µM) | 0.005 µg/mL (≈ 0.00554 µM) | 1.9 µg/mL (≈ 2.11 µM)
12 | CCN(CC)CCN(CC)c1nc2c([nH]1)c1c(O)c3c(O)c(C)c4c(c32)C(=O)[C@@](C)(O/C=C/[C@H](OC)[C@@H](C)[C@@H](OC(C)=O)[C@H](C)[C@H](O)[C@H](C)[C@@H](O)[C@@H](C)/C=C/C=C(/C)C(=O)N1)O4 [Verbindung 18, 4-[N-Ethyl-N-(2-diethylaminoethyl)-amino]-imidazolo-[4,5-c]rifamycin SV] | – | – | – | – | – | – | – | – | – | – | – | 4 µg/mL (≈ 4.63 µM) | 2 µg/mL (≈ 2.31 µM) | 4 µg/mL (≈ 4.63 µM) | 2 µg/mL (≈ 2.31 µM) | 8 µg/mL (≈ 9.26 µM) | 16 µg/mL (≈ 18.5 µM) | 0.005 µg/mL (≈ 0.00579 µM) | 0.005 µg/mL (≈ 0.00579 µM) | 0.48 µg/mL (≈ 0.556 µM)
13 | CO[C@H]1/C=C/O[C@@]2(C)Oc3c(C)c(O)c4c(O)c(c5nc(N6CCN(Cc7ccccc7)CC6)[nH]c5c4c3C2=O)NC(=O)/C(C)=C\C=C\[C@H](C)[C@H](O)[C@@H](C)[C@@H](O)[C@@H](C)[C@H](OC(C)=O)[C@@H]1C [Verbindung 57, 4-(4-Benzylpiperazinyl)-imidazolo[4,5-c]rifamycin SV] | – | – | – | – | – | – | – | – | – | – | – | 4 µg/mL (≈ 4.46 µM) | 8 µg/mL (≈ 8.93 µM) | 4 µg/mL (≈ 4.46 µM) | 4 µg/mL (≈ 4.46 µM) | 16 µg/mL (≈ 17.9 µM) | 16 µg/mL (≈ 17.9 µM) | 0.005 µg/mL (≈ 0.00558 µM) | 0.005 µg/mL (≈ 0.00558 µM) | 0.97 µg/mL (≈ 1.08 µM)
14 | CO[C@H]1/C=C/O[C@@]2(C)Oc3c(C)c(O)c4c(O)c(c5nc(N6CCN(c7ccccn7)CC6)[nH]c5c4c3C2=O)NC(=O)/C(C)=C\C=C\[C@H](C)[C@H](O)[C@@H](C)[C@@H](O)[C@@H](C)[C@H](OC(C)=O)[C@@H]1C [Verbindung 59, 4-[4-(2-Pyridyl)-piperazinyl]-imidazolo[4,5-c]rifamycin SV] | – | – | – | – | – | – | – | – | – | – | – | 8 µg/mL (≈ 9.06 µM) | 8 µg/mL (≈ 9.06 µM) | 2 µg/mL (≈ 2.26 µM) | 8 µg/mL (≈ 9.06 µM) | 8 µg/mL (≈ 9.06 µM) | 32 µg/mL (≈ 36.2 µM) | 0.01 µg/mL (≈ 0.0113 µM) | 0.01 µg/mL (≈ 0.0113 µM) | –
15 | CO[C@H]1/C=C/O[C@@]2(C)Oc3c(C)c(O)c4c(O)c(c5nc(N6CCN(Cc7ccccn7)CC6)[nH]c5c4c3C2=O)NC(=O)/C(C)=C\C=C\[C@H](C)[C@H](O)[C@@H](C)[C@@H](O)[C@@H](C)[C@H](OC(C)=O)[C@@H]1C [Verbindung 60, 4-[4-(2-Pyridylmethyl)-piperazinyl]-imidazolo[4,5-c]-rifamycin SV] | – | – | – | – | – | – | – | – | – | – | – | 32 µg/mL (≈ 35.7 µM) | 32 µg/mL (≈ 35.7 µM) | 32 µg/mL (≈ 35.7 µM) | 32 µg/mL (≈ 35.7 µM) | 64 µg/mL (≈ 71.3 µM) | 128 µg/mL (≈ 143 µM) | 0.02 µg/mL (≈ 0.0223 µM) | 0.02 µg/mL (≈ 0.0223 µM) | –
